From US20250161329A1, “USE OF UV FILTERS FOR THE TREATMENT OF ACNE” (DSM IP ASSETS B.V., priority 2022, published 2025)

Columns and labels:
[1] = test system: Staphylococcus epidermidis ATCC 12228; experiment: In vitro UV model, survival of S. epidermidis after UV irradiation (96-well liquid model, MPN method); type: cell-based
Description: Accordingly, the inventors developed a targeted in vitro liquid model in 96-well microplate format to screen for UV protective actives (“UV filters”) on bacterial survival. The effects of selected UV irradiation conditions tested on microbial population of C. acnes and the commensal reference strain of Staphylococcus epidermidis in the presence of various UV filters and combinations thereof were evaluated with the evolution of the residual microbial population after 4 h. The inhibition of bacterial growth, as consequence of UV irradiation, was compared to that of the same strain without UV irradiation and was expressed in percentage of survival (%). […] The use level of the single UV filter and combinations in the test formulations was calculated to obtain a predicted in vitro SPF value of 5.75+/−0.15 and 23.45+/−0.65, respectively (Table 2). […] The relative percentage of protection (%) was calculated from the difference between the survival percentages of samples and vehicle control (with UV irradiation) and divided to the survival percentage of the vehicle control. Consequently, the survival of each microbial population and the relative protection by the UV filter(s) were calculated and are summarized in the Table 2.

[2] = test system: Cutibacterium acnes ATCC 11827; experiment: In vitro UV model, survival of C. acnes after UV irradiation (96-well liquid model, plate counting); type: cell-based; settings: for C. acnes relative protection by the UV filter(s) vs. vehicle control / C. acnes survival: UV 3 SED (UVA+UVB 30 mJ/cm^2), after 4 h, sample at 20% v/v; for C. acnes relative protection by the UV filter(s) vs. vehicle control: (sample survival - vehicle survival)/vehicle survival; for C. acnes survival: compared to untreated and non-irradiated control
Description: Accordingly, the inventors developed a targeted in vitro liquid model in 96-well microplate format to screen for UV protective actives (“UV filters”) on bacterial survival. The effects of selected UV irradiation conditions tested on microbial population of C. acnes and the commensal reference strain of Staphylococcus epidermidis in the presence of various UV filters and combinations thereof were evaluated with the evolution of the residual microbial population after 4 h. The inhibition of bacterial growth, as consequence of UV irradiation, was compared to that of the same strain without UV irradiation and was expressed in percentage of survival (%). The microbial strains used in this study are listed below and their cultures are reconstituted according to the direction of the supplier collection center of the reference strain, (ATCC American Type Culture Collection, USA): • Cutibacterium acnes ATCC 11827 • Staphylococcus epidermidis ATCC 12228 The 96-well plate was filled with the recommended culture media (140 μL) and a calibrated inoculum (20 μL) of each bacterial strain was added to reach […] colony forming units per milliliter (cfu/mL) final concentration. After contamination, the sample was added (40 μL; 20% v/v) in triplicate and was thoroughly mixed to ensure a homogeneous distribution. Then, the plate was submitted to UV stress through an UV irradiator system (BioSun, Vilber Lourmat, France) according to the UV doses presented Table 1 below. The specific UV dose selected was between 10 and 49% survival of the microbial population. The counting of C. acnes microbial population was performed by plating aliquots on the agar plates and was done in triplicate. The enumeration of grown C. acnes colonies was used to determine the decrease rate of microbial population. Controls performed during this experiment were the culture medium with bacteria incubated without UV stress. The microbial population counts were expressed in cfu/mL and were the average of experiment done in triplicate. The use level of the single UV filter and combinations in the test formulations was calculated to obtain a predicted in vitro SPF value of 5.75+/−0.15 and 23.45+/−0.65, respectively (Table 2). The UV filters were mixed in the two oils, Tegosoft XC (55%) and Miglyol 829 Eco (ad100%) and the emulsifier Tween 80 (5%). The effect of selected UV irradiation conditions on the survival of microbial population of C. acnes and S. epidermidis in the presence of the tested samples 1-10 at 20% v/v, was compared with the corresponding strain in the absence of samples 1-10 and without exposure to UV irradiation (control). The results after the 4-hour incubation were compared to the population of bacteria incubated without UV stress (determination of bacterial population survival) and were expressed in percentage of survival (%). The relative percentage of protection (%) was calculated from the difference between the survival percentages of samples and vehicle control (with UV irradiation) and divided to the survival percentage of the vehicle control. Consequently, the survival of each microbial population and the relative protection by the UV filter(s) were calculated and are summarized in the Table 2.

Structure (SMILES)	effect on the commensal bacterium S. epidermidis upon UV irradiation (in words) [1]	effect on the population of C. acnes upon UV irradiation (in words) ([2]; C. acnes ATCC 11827, phylotype IA, upon UV irradiation)	C. acnes relative protection by the UV filter(s) vs. vehicle control [2]	C. acnes survival [2]
CCCCC(CC)COC(=O)C(C#N)=C(c1ccccc1)c1ccccc1 (stereo not shown) [Inv. 1, Octocrylene]	maintain or even propagating the commensal bacterium S. epidermidis	reduced the population of C. acnes	(−15) %	56%
CCCCC(CC)COC(=O)c1ccccc1O (stereo not shown) [Inv. 2, Ethylhexyl Salicylate]	–	–	(−30) %	46%
CCCCC(CC)COC(=O)c1ccc(Nc2nc(Nc3ccc(C(=O)OCC(CC)CCCC)cc3)nc(Nc3ccc(C(=O)OCC(CC)CCCC)cc3)n2)cc1 (stereo not shown) [Ref. 1, Ethylhexyl Triazone, reference compound]	–	–	(+40) %	92%
CCCCC(CC)COc1ccc(-c2nc(-c3ccc(OC)cc3)nc(-c3ccc(OCC(CC)CCCC)cc3O)n2)c(O)c1 (stereo not shown) [Ref. 2, Bis-Ethylhexyloxyphenol Methoxyphenyl Triazine, reference compound]	–	–	(+13) %	74%
